Test results reported in patent US20110230472A1, “RING-FUSED AZOLE DERIVATIVE HAVING PI3K-INHIBITING ACTIVITY” (Shionogi & Co., Ltd., priority 2008, published 2011).

Target: PI-3 kinase γ (Homo sapiens, UniProt P48736)
Test: PI3Kγ inhibitory activity, PI3-kinase HTRF assay (inhibition ratio)
Assay type: biochemical
Conditions: 0.5 h
Protocol: The PI3Kγ inhibitory activity of a compound was evaluated using PI3-kinase HTRF™ assay (Millipore) according to the following procedure:
To each well of a testing plate, 5 μL of a compound solution containing 10% DMSO (200 μmol/L or 40 μmol/L as the concentration of the compound), 5 μL of a substrate solution (40 μmol/L phosphatidylinositol (4,5)-bisphosphate, 20 mmol/L MgCl2, 10 mmol/L DTT), and 5 μL of a enzyme solution (80 μg/mL PI-3 kinase γ, 10 mmol/L MgCl2, 5 mmol/L DTT) were added, and then allowed to stand for 10 minutes.
Then, 5 μL of a reaction solution (40 μmol/L ATP, 10 mmol/L MgCl2, 5 mmol/L DTT) was added thereto. After reacting for 30 minutes at room temperature, 5 μL of a solution containing EDTA and biotinylated phosphatidylinositol (3,4,5)-triphosphate were added to quench the reaction.
5 μL of a detection reagent containing a europium-labeled anti-GST antibody, the GST-tagged PH domain, and allophycocyanin-labeled streptavidin was added thereto. After 18 hours, HTRF (excitation wavelength: 330 nm, measured wavelengths: 620 nm and 665 nm) was measured.
HTRF ratio was defined as the value obtained by dividing the amount of fluorescence obtained at the measured wavelength 665 nm by the amount of fluorescence obtained at 620 nm. The HTRF ratio in the absence of a compound was defined as 100% activity and the HTRF ratio in the absence of PI-3 kinase γ was defined as 0% activity to calculate an inhibition ratio which was defined as the PI3Kγ inhibitory activity of a compound at 50 μmol/L or 10 μmol/L.

PI-3 kinase γ, sequence (P48736 whole entry): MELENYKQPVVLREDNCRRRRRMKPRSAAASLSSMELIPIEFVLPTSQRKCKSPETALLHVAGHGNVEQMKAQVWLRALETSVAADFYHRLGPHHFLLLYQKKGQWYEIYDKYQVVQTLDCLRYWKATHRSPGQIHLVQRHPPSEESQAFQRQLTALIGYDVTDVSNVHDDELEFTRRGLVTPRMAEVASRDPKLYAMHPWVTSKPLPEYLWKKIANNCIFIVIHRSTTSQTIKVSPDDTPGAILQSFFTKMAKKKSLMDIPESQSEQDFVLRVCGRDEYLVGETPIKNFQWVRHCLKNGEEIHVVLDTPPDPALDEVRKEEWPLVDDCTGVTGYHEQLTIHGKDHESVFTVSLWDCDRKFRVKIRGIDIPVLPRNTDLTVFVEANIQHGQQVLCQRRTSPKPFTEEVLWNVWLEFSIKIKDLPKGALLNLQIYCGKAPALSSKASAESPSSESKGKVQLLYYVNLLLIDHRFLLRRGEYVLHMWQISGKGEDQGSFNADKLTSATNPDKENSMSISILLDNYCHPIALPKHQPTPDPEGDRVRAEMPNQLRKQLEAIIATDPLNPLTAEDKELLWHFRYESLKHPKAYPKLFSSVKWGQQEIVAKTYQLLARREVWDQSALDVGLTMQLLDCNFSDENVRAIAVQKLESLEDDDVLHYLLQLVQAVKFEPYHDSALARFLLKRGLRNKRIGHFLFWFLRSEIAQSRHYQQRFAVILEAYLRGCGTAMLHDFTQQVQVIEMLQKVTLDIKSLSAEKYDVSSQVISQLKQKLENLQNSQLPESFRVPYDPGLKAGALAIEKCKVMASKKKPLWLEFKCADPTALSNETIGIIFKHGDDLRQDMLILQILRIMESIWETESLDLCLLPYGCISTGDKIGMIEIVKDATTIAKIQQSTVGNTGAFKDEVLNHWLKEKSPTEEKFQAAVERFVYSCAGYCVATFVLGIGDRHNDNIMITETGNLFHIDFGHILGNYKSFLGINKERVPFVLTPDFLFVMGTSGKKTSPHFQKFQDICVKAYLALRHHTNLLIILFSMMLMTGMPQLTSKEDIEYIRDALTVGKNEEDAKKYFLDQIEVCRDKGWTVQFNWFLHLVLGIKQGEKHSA

| SMILES | inhibition at 10 µM (compound at 10 μmol/L) | inhibition at 50 µM (PI3Kγ, compound at 50 μM) | also measured |
| --- | --- | --- | --- |
| CC(=O)Nc1ncc(C(=O)Nc2cc3n(n2)CCN3c2ccc3c(c2)CCN(C)C3=O)s1 [Compound I-531] | 75% |  |  |
| COc1cccc(NC(=O)Nc2nc3c(s2)CN(c2cc(OC)nc(OC)n2)CC3)c1 [Compound I-295] | 93% |  |  |
| CNC(=O)Nc1cc2n(n1)CCN(c1cccc(C(=O)OC)c1)C2 [Compound I-81] |  | 75% |  |
| CN1CCc2cc(N3CCn4nc(NC(=O)C(O)c5ccccc5)cc43)ccc2C1=O (centres unmarked) [Compound I-352] |  |  | inhibition at 50 µM (compound at 50 μmol/L): 81% |
| O=C(NCCC(=O)N1CCOCC1)Nc1cc2n(n1)CCN2c1cccc(Cl)c1 [Compound I-218] |  | ≥ 95% |  |
| CNC(=O)Nc1cc2n(n1)CCN2c1cccc(-c2cnco2)c1 [Compound I-84] |  | ≥ 95% |  |
| COc1cc(N2CCc3nc(NC(=O)NC4CCC(C(C)(C)C)CC4)sc3C2)nc(OC)n1 (centres unmarked) [Compound I-290] |  |  | inhibition at 50 µM (compound at 50 μmol/L): 88% |
| CN(C)C(=O)c1ccc(C(=O)Nc2cc3n(n2)CCN3c2ccc3c(c2)CCN(C)C3=O)s1 [Compound I-451] | 90% |  |  |
| CNC(=O)Nc1cc2n(n1)CCN2c1cc(Br)cc(C(=O)N2CCOCC2)c1 [Compound I-173] |  | ≥ 95% |  |
| CNC(=O)Nc1cc2n(n1)CCN2c1cc(Br)cc(C(=O)N2CCN(C(=O)OC(C)(C)C)CC2)c1 [Compound I-182] |  | 79% |  |
| CN1CCc2cc(N3CCn4nc(NC(=O)CC5CCN(C(=O)OC(C)(C)C)C5)cc43)ccc2C1=O (centres unmarked) [Compound I-351] |  |  | inhibition at 50 µM (compound at 50 μmol/L): ≥ 95% |
| CNC(=O)Nc1cc2n(n1)CCN(c1cc(OC)nc(OC)n1)C2 [Compound I-133] |  | ≥ 95% |  |
| COc1cc(N2CCc3nc(NC(=O)NCCC(=O)N4CCC[C@H]4C(=O)N(C)C(C)C)sc3C2)nc(OC)n1 [Compound I-313] | 89% |  |  |
| O=C(Nc1cc2n(n1)CCN2c1cccc(Cl)c1)C1CCCC1 [Compound I-237] |  | 84% |  |
| CN1CCc2cc(N3CCn4nc(NC(=O)c5cccc(NC(=O)OC(C)(C)C)c5)cc43)ccc2C1=O [Compound I-466] | 83% |  |  |
| CN(C)C(=O)Nc1cc2n(n1)CCN2c1ccc2c(c1)CCN(C)C2=O [Compound I-539] | ≥ 95% |  |  |
| COc1cc(N2CCc3nc(NC(=O)CCNC(=O)OC(C)(C)C)sc3C2)nc(OC)n1 [Compound I-281] |  |  | inhibition at 10 µM (PI3Kγ, compound at 10 μM): ≥ 95% |
| COc1cccc(CC(=O)Nc2nc3c(s2)CN(c2cc(OC)nc(OC)n2)CC3)c1 [Compound I-251] |  |  | inhibition at 10 µM (PI3Kγ, compound at 10 μM): 88% |
| CC(=O)Nc1cc2n(n1)CCN2c1ccc2c(c1)CCC2=O [Compound I-283] |  |  | inhibition at 10 µM (PI3Kγ, compound at 10 μM): ≥ 95% |

| SMILES | inhibition at 10 µM (compound at 10 μmol/L) | inhibition at 50 µM (PI3Kγ, compound at 50 μM) | also measured |
| --- | --- | --- | --- |
| CCOC(=O)c1ccc(N2CCn3nc(NC(=O)NC)cc32)s1 [Compound I-211] |  | 89% |  |
| COc1cc(N2CCc3nc(NC(=O)Nc4ccsc4)sc3C2)nc(OC)n1 [Compound I-297] | 91% |  |  |
| CC(=O)Nc1cc2n(n1)CCN2C(=O)c1ccccc1 [Compound I-2] |  | ≥ 95% |  |
| COc1cc(N2CCc3nc(NC(=O)C4CN(C(=O)OC(C)(C)C)C4)sc3C2)nc(OC)n1 [Compound I-529] | 82% |  |  |
| CNC(=O)Nc1cc2n(n1)CCN2c1cc(Br)cc(C(=O)NCCC(=O)OC(C)(C)C)c1 [Compound I-174] |  | ≥ 95% |  |
| CNC(=O)Nc1cc2n(n1)CCN2C(=O)OC(C)(C)C [Compound I-8] |  | ≥ 95% |  |
| CNC(=O)Nc1cc2n(n1)CCN2c1nc2ccccc2s1 [Compound I-115] |  | ≥ 95% |  |
| CNC(=O)Nc1cc2n(n1)CCN2c1cc(C(=O)N2CCOCC2)cc(-c2ccc(N)cc2)c1 [Compound I-210] |  | ≥ 95% |  |
| CN1CCc2cc(N3CCn4nc(NC(=O)c5cc6ccccc6[nH]5)cc43)ccc2C1=O [Compound I-345] | 80% |  |  |
| COc1cc(C(=O)Nc2nc3c(s2)CN(c2cc(OC)nc(OC)n2)CC3)on1 [Compound I-282] |  |  | inhibition at 10 µM (PI3Kγ, compound at 10 μM): 86% |
| COc1cc(N2CCc3nc(NC(=O)NCCCOC(C)(C)C)sc3C2)nc(OC)n1 [Compound I-288] |  |  | inhibition at 10 µM (PI3Kγ, compound at 10 μM): ≥ 95% |
| O=C(Nc1cc2n(n1)CCN2c1ccccc1)c1ccccc1 [Compound I-135] |  | ≥ 95% |  |
| COc1cc(N2CCc3nc(NC(=O)NCc4cc(Br)no4)sc3C2)nc(OC)n1 [Compound I-329] | 89% |  |  |
| CNC(=O)Nc1nc2c(s1)CN(c1cc(Cl)nc(SC)n1)CC2 [Compound I-128] |  | ≥ 95% |  |
| CNC(=O)Nc1cc2n(n1)CCN2c1cc(C#Cc2ccccc2)cc(C(=O)N2CCOCC2)c1 [Compound I-228] |  | 85% |  |
| CNS(=O)(=O)c1cc(C(=O)Nc2cc3n(n2)CCN3c2ccc3c(c2)CCN(C)C3=O)cs1 [Compound I-437] | ≥ 95% |  |  |
| CC(C)NC(=O)c1ccccc1NC(=O)Nc1nc2c(s1)CN(C(=O)OCc1ccccc1)CC2 [Compound I-441] | 88% |  |  |
| CNC(=O)Nc1cc2n(n1)CCN2c1cc(C#CCOC)cc(C(=O)N2CCOCC2)c1 [Compound I-233] |  | 84% |  |
| CNC(=O)Nc1nc2c(s1)CN(c1cc(OC)nc(N)n1)CC2 [Compound I-145] |  | ≥ 95% |  |

| SMILES | inhibition at 10 µM (compound at 10 μmol/L) | inhibition at 50 µM (PI3Kγ, compound at 50 μM) | also measured |
| --- | --- | --- | --- |
| COc1cc(N2CCc3nc(NC(=O)NCCC(=O)OC(C)(C)C)sc3C2)nc(OC)n1 [Compound I-143] |  | ≥ 95% |  |
| CN1CCc2cc(N3CCn4nc(NC(=O)c5cccc(OC(C)(C)C(=O)O)c5)cc43)ccc2C1=O [Compound I-474] | ≥ 95% |  |  |
| CNC(=O)Nc1cc2n(n1)CCN(c1cncc(OC)c1)C2 [Compound I-65] |  | ≥ 95% |  |
| CN1CCc2cc(N3CCn4nc(NC(=O)C5CCN(C(=O)OC(C)(C)C)C5)cc43)ccc2C1=O (centres unmarked) [Compound I-350] |  |  | inhibition at 50 µM (compound at 50 μmol/L): ≥ 95% |
| CN1CCc2cc(N3CCn4nc(NC(=O)c5cc6cccnc6[nH]5)cc43)ccc2C1=O [Compound I-385] | 91% |  |  |
| CNC(=O)Nc1cc2n(n1)CCN2c1cc(CCc2ccccc2)cc(C(=O)N2CCOCC2)c1 [Compound I-260] |  | 93% |  |
| CN1CCc2cc(N3CCn4nc(NC(=O)c5csc(C(=O)O)c5)cc43)ccc2C1=O [Compound I-418] | 93% |  |  |
| CN1CCc2cc(N3CCn4nc(NC(=O)c5cccc(N)c5)cc43)ccc2C1=O [Compound I-473] | ≥ 95% |  |  |
| CN1CCc2cc(N3CCn4nc(NC(=O)NC5CCCC5)cc43)ccc2C1=O [Compound I-369] |  |  | inhibition at 50 µM (compound at 50 μmol/L): ≥ 95% |
| CNC(=O)Nc1cc2n(n1)CCN2c1ccc2ccccc2c1 [Compound I-176] |  | ≥ 95% |  |
| COc1cccc(N2CCn3nc(NC(=O)c4ccc[nH]4)cc32)c1 [Compound I-320] | ≥ 95% |  |  |
| CCOC(=O)CNC(=O)Nc1cc2n(n1)CCN2c1ccc2c(c1)CCN(C)C2=O [Compound I-501] | 81% |  |  |
| CC(C)NS(=O)(=O)c1cc(C(=O)Nc2cc3n(n2)CCN3c2ccc3c(c2)CCN(C)C3=O)cs1 [Compound I-428] | 90% |  |  |
| COc1cc(N2CCc3nc(NC(=O)NCCC(=O)N(C(C)C)C(C)C)sc3C2)nc(OC)n1 [Compound I-272] |  |  | inhibition at 10 µM (PI3Kγ, compound at 10 μM): ≥ 95% |
| CC(C)NS(=O)(=O)c1ccc(C(=O)Nc2cc3n(n2)CCN3c2ccc3c(c2)CCN(C)C3=O)cc1 [Compound I-527] | 79% |  |  |
| CNC(=O)Nc1nc2c(s1)CN(c1cc(Oc3ccccc3)nc(O)n1)CC2 [Compound I-151] |  | 80% |  |
| CC(=O)Nc1nc2ccn(-c3cccc(Cl)c3)c2s1 [Compound I-471] | 91% |  |  |
| CN1CCc2cc(N3CCn4nc(NC(=O)C5CCCO5)cc43)ccc2C1=O (centres unmarked) [Compound I-372] |  |  | inhibition at 50 µM (compound at 50 μmol/L): 84% |
